This note sets out measurements from ChEMBL document CHEMBL3603812, “Biarylsulfonamide CCR9 inhibitors for inflammatory bowel disease” (Bioorg Med Chem Lett, 2015).

For data set [1], the target named is T1, C-C chemokine receptor type 9 (Homo sapiens, UniProt P51686).
T1 sequence (P51686 whole entry): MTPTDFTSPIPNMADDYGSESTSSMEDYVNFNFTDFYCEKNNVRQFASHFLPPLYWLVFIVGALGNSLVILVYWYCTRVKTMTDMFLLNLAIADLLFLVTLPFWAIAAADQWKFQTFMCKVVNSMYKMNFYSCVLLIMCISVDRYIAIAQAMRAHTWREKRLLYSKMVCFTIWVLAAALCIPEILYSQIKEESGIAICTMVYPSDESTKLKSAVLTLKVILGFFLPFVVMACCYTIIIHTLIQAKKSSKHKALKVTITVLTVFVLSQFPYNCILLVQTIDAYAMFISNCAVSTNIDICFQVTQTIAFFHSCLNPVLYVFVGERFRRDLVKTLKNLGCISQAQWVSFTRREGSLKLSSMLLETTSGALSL
Description: Antagonist activity at CCR9 receptor (unknown origin) assessed as inhibition of TECK-induced calcium mobilization incubated for 10 mins prior to TECK induction

A short description of data set [2]: Volume of distribution at steady state in iv dosed mouse. To be noted: in vivo, read-out: Vdss. It counts as ADME, organism-based.
A short description of data set [3]: Solubility of the compound at pH 7.4. It counts as physicochemical. Conditions: buffer.
The nature of data set [4]: Plasma protein binding in human. It is filed as ADME, cell-free. Conditions: read-out: PPB (converted).
Data set [5] can be described thus: Oral bioavailability in mouse. It counts as ADME, organism-based. Conditions: in vivo.
Data set [6] can be described thus: Clearance in mouse liver microsomes. Conditions: read-out: CLH. It is filed as ADME.
A short description of data set [7]: Solubility of the compound at pH 9. It is filed as physicochemical. To be noted: buffer.
The nature of data set [8]: Clearance in iv dosed mouse. It is filed as ADME, organism-based. To be noted: in vivo.
In data set [9] the test system is Mus musculus. The experiment in a line: Dose normalized AUC in iv dosed mouse. It counts as ADME, organism-based. To be noted: in vivo.
A short description of data set [10]: Terminal half life in iv and po dosed mouse. It counts as ADME, organism-based. To be noted: in vivo, read-out: beta t1/2 (converted).
Data set [11] in a line: Lipophilicity, log D of the compound. It is filed as physicochemical. To be noted: octanol/water.

In brackets after ≈: the same amount, converted by molar mass.

`CC(C)(C)c1ccc(S(=O)(=O)Nc2ccc(Cl)cc2-c2ccccn2)cc1`: in data set [1], the IC50 is above 10 µM.

The compound `COc1ccnc(-c2cc(Cl)ccc2NS(=O)(=O)c2ccc(C(C)(C)C)cc2)c1` returned a concentration for half-maximal inhibition (IC50) in data set [1] of 2.5 µM.

`COc1cccnc1-c1cc(Cl)ccc1NS(=O)(=O)c1ccc(C(C)(C)C)cc1` displayed an IC50 in data set [1] of 0.958 µM.

As to `CC(C)(C)c1ccc(S(=O)(=O)Nc2ccc(Cl)cc2-c2ncccc2O)cc1`, it took 0.029 µM to reach half-maximal inhibition in data set [1] (IC50).

In data set [1], `CC(C)(C)c1ccc(S(=O)(=O)Nc2ccc(Cl)cc2-c2ncccc2N)cc1` yielded an IC50 of 0.095 µM.

In the case of `CC(C)(C)c1ccc(S(=O)(=O)Nc2ccc(Cl)cc2-c2ncccc2CO)cc1`, in data set [1], the IC50 was 0.089 µM.

As to `CC(C)(C)c1ccc(S(=O)(=O)Nc2ccc(Cl)cc2-c2ncccc2CN)cc1`, the IC50 in [1] is 3.16 µM.

Take `COCc1cccnc1-c1cc(Cl)ccc1NS(=O)(=O)c1ccc(C(C)(C)C)cc1`: in data set [1], half-maximal inhibition (IC50) required 3.48 µM.

As for `CC(C)(C)c1ccc(S(=O)(=O)Nc2ccc(Cl)cc2-c2c(O)ccc[n+]2[O-])cc1`, the IC50 in data set [1] came to 0.491 µM.

`CC(C)(C)c1ccc(S(=O)(=O)Nc2ccc(Cl)cc2-c2nccc(C(N)=O)c2O)cc1`: 0.052 µM corresponded to half-maximal inhibition in [1] (IC50).

Take `CC(C)(C)c1ccc(S(=O)(=O)Nc2ccc(Cl)cc2-c2nccc(CO)c2O)cc1`: the half-maximal inhibitory concentration (IC50) in [1] came to 0.0087 µM.

With `CC(C)(C)c1ccc(S(=O)(=O)Nc2ccc(Cl)cc2-c2ncccn2)cc1`, the IC50 in data set [1] was 0.0003 µM.

For `CC(C)(C)c1ccc(S(=O)(=O)Nc2ccc(Cl)cc2-c2ncncc2N)cc1`, the IC50 in data set [1] was 0.0032 µM.

The compound `CC(C)(C)c1ccc(S(=O)(=O)Nc2ccc(Cl)cc2-c2nccnc2N)cc1` returned a half-inhibitory concentration (IC50) in data set [1] of 0.0032 µM.

In data set [1], `CC(C)(C)c1ccc(S(=O)(=O)Nc2ccc(Cl)cc2-c2nnccc2N)cc1` displayed an IC50 of 0.0038 µM.

On to `CC(C)(C)c1ccc(S(=O)(=O)Nc2ccc(Cl)cc2-c2ncncc2O)cc1`, for which it took 0.011 µM to reach half-maximal inhibition in [1] (IC50).

Consider `CC(C)(C)c1ccc(S(=O)(=O)Nc2ccc(Cl)cc2-c2nc(N)ncc2O)cc1`, for which it took 0.004 µM to reach half-maximal inhibition in [1] (IC50).

In data set [1], `CNc1ncc(O)c(-c2cc(Cl)ccc2NS(=O)(=O)c2ccc(C(C)(C)C)cc2)n1` had an IC50 of 0.027 µM.

In the case of `CC(C)(C)c1ccc(S(=O)(=O)Nc2ccc(Cl)cc2-c2nc(NCCO)ncc2O)cc1`, 0.214 µM corresponded to half-maximal inhibition in [1] (IC50).

`CC(C)(C)c1ccc(S(=O)(=O)Nc2ccc(Cl)cc2-c2ncnc(N)c2O)cc1` returned an IC50 in [1] of 0.014 µM.

`CN(C)c1ncnc(-c2cc(Cl)ccc2NS(=O)(=O)c2ccc(C(C)(C)C)cc2)c1O`: the IC50 in [1] worked out at 0.009 µM.

Compound `CC(C)(C)c1ccc(S(=O)(=O)Nc2ccc(Cl)cc2-c2nncc(N3CCOCC3)c2N)cc1` gave a half-maximal inhibitory concentration (IC50) in data set [1] of 0.026 µM.

Turning to `CC(C)(C)c1ccc(S(=O)(=O)Nc2ccc(Cl)cc2-c2ncnc(CO)c2O)cc1`, the IC50 in [1] came out at 0.011 µM.

In turn, `CCc1ncnc(-c2cc(Cl)ccc2NS(=O)(=O)c2ccc(C(C)(C)C)cc2)c1O` came in with a concentration for half-maximal inhibition (IC50) in data set [1] of 0.006 µM.

As for `CNc1nccnc1-c1cc(Cl)ccc1NS(=O)(=O)c1ccc(C(C)(C)C)cc1`, half-maximal inhibition in [1] (IC50) required 0.025 µM.

Turning to `CCNc1nccnc1-c1cc(Cl)ccc1NS(=O)(=O)c1ccc(C(C)(C)C)cc1`, in data set [1], half-maximal inhibition (IC50) was put at 0.421 µM.

Turning to `CC(C)(C)c1ccc(S(=O)(=O)Nc2ccc(Cl)cc2-c2nccnc2NCCO)cc1`, in [2], the Vd was determined as 1.1 L/kg. Besides, the solubility was 0.24 mg/mL (≈ 521 µM) in data set [3] and 1.1 mg/mL (≈ 2390 µM) in data set [7]. In addition, the fraction unbound in data set [4] was 0.016. In [5], this compound came in with a bioavailability of 38%. Besides, the CLint scaled in [6] was determined as 2.94 L/h/kg. The compound further showed a clearance in [8] of 1.56 L/h/kg. The AUC/dose in data set [9] stood at 0.65 µg·h/mL/mg/kg. It took 0.034 µM to reach half-maximal inhibition in data set [1] (IC50). Moreover, the half-life in data set [10] is 1.2 h.

For `CC(C)(C)c1ccc(S(=O)(=O)Nc2ccc(Cl)cc2-c2nccnc2NCCCO)cc1`, the IC50 in data set [1] is 0.614 µM.

Take `CN(C)CCNc1nccnc1-c1cc(Cl)ccc1NS(=O)(=O)c1ccc(C(C)(C)C)cc1`: in data set [1], 3.6 µM corresponded to half-maximal inhibition (IC50).

Compound `CC(C)(C)c1ccc(S(=O)(=O)Nc2ccc(Cl)cc2-c2nccnc2NCC(=O)O)cc1` gave a concentration for half-maximal inhibition (IC50) in [1] of 0.812 µM.

Consider `Cc1cnc(-c2cc(Cl)ccc2NS(=O)(=O)c2ccc(C(C)(C)C)cc2)c(NCCO)n1`, for which the half-maximal inhibitory concentration (IC50) in [1] was 0.268 µM.

In turn, `CNc1cnc(-c2cc(Cl)ccc2NS(=O)(=O)c2ccc(C(C)(C)C)cc2)c(NCCO)n1` gave an IC50 in data set [1] of 1.01 µM.

`CC(C)(C)c1ccc(S(=O)(=O)Nc2ccc(Cl)cc2-c2nc(Cl)cnc2NCCO)cc1` yielded an IC50 in [1] of 0.715 µM.

With `CC(C)(C)c1ccc(S(=O)(=O)Nc2ccc(Cl)cc2C(=O)c2cc[n+]([O-])cc2)cc1` [VERCIRNON], the Vd in [2] worked out at 0.83 L/kg. Besides, the solubility in data set [3] was 0.0012 mg/mL (≈ 2.7 µM); in data set [7], 0.051 mg/mL (≈ 115 µM). The fraction unbound in [4] was 0.009. In addition, the bioavailability in data set [5] came out at 10%. Also, in data set [6], the CLint scaled amounted to 8.82 L/h/kg. Also, the clearance in data set [8] was 1.98 L/h/kg. Moreover, the pH-dependent lipophilicity (logD) in data set [11] amounted to 3.7. Further, the AUC/dose in data set [9] is 0.56 µg·h/mL/mg/kg. Besides, the half-life in [10] was 1.3 h.
